Experimental data from patent US5036098A, “Butynylamine derivatives and their production” (Nippon Shinyaku Co., Ltd., priority 1988, dated 1991).
Where a name gives a salt, the structure may show the parent alone.

Key:
rat bladder = details: for Frequency (cycles of contraction per minute), 0.1 mg/kg (i.v.) / Frequency (cycles of contraction per minute), 0.3 mg/kg (i.v.) / Frequency (cycles of contraction per minute), 1.0 mg/kg (i.v.) / Frequency (cycles of contraction per minute), 3.0 mg/kg (i.v.): 0 to 15 minutes, cumulative administration; for Frequency (cycles of contraction per minute), 1.0 mg/kg (i.v.): *p < 0.05; for Frequency (cycles of contraction per minute), 3.0 mg/kg (i.v.): **p < 0.01; for Frequency (cycles of contraction per minute), before administration: before administration (baseline); for action to suppress the frequency of contraction: i.v., cumulative, result in words
in vivo = details: rat, iv, 3 mg/kg
Description: 4. Concentration of unchanged drug in the serum
A drug being tested was administered to an SD rat (male; 280 to 360 g) in a dose of 3 mg/kg (i.v.), blood samples were taken out at predetermined intervals, and the change in the concentration of said drug left unchanged in the serum was measured.

[1] = system: detrusor muscles of excised rabbit bladder; assay: Ca++ antagonism upon detrusor muscles of excised rabbit bladder (calcium chloride contraction); details: for pA2 value, Ca++ Antagonism: calcium chloride cumulation, Ca++-free, high KCl-modified Krebs' solution, excised rabbit detrusor
[2] = target: detrusor muscles of excised rabbit bladder (Oryctolagus cuniculus, UniProt G1U308)
From the text: 1. Action upon detrusor muscles of excised rabbit bladder
(1) Anticholinergic action
The specimens were contracted by carbachol cumulation, and a reaction curve with respect to carbachol concentration was obtained.

[3] = prior art statement; cited from earlier work
Acute toxicity = assay: Acute toxicity; parameters: species or system mice; details: mouse, in vivo, po; mortality one week later, method of Weil
Description: ddY-Mice (male; 6 to 7 week age) were used as test animals (each group consisting of four mice). Each of the mice was fasted from the previous day (16 to 18 hours before), a drug being tested was orally administered by using a gastric tube, and LD50 value was calculated from the mortality one week later according to the method of Weil.

detrusor muscles of excised rabbit bladder (Oryctolagus cuniculus, UniProt G1U308), sequence (G1U308 entry or part of it): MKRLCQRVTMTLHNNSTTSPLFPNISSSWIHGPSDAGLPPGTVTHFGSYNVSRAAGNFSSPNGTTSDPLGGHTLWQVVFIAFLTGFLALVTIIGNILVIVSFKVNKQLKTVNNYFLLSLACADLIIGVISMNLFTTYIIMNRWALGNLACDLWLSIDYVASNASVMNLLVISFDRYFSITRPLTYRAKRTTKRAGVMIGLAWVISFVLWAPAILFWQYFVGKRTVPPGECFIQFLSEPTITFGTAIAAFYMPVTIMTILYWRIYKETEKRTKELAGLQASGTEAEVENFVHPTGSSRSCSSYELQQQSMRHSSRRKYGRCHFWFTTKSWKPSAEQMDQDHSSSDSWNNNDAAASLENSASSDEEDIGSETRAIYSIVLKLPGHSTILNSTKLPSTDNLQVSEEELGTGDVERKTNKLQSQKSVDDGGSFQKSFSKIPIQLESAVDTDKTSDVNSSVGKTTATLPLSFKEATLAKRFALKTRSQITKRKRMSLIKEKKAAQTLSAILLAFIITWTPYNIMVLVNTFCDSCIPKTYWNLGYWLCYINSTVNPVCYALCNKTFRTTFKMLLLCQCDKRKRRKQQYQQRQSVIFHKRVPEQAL

Row | Compound | Frequency (cycles of contraction per minute), 0.1 mg/kg (i.v.) (rat bladder) | Frequency (cycles of contraction per minute), 0.3 mg/kg (i.v.) (rat bladder) | Frequency (cycles of contraction per minute), 1.0 mg/kg (i.v.) (rat bladder) | Frequency (cycles of contraction per minute), 3.0 mg/kg (i.v.) (rat bladder) | Frequency (cycles of contraction per minute), before administration (rat bladder) | action to suppress the frequency of contraction (rat bladder) | half-life (in vivo) [min] | pA2 value, Ca++ Antagonism [1] | Kb [2] [nM] | side effects [3] | minimal effective dose (rat bladder; Rattus norvegicus, iv, read-out: doses showing action to suppress the frequency of contraction) [mg/kg] | Ca++ antagonism compared with oxybutynin ([1]; ratio to oxybutynin) [times] | anticholinergic action compared with oxybutynin ([2]; ratio to oxybutynin) | LD50 at 168 h (Acute toxicity) [mg/kg]
1 | CCN(CC)CC#CCOC(=O)C(O)(c1ccccc1)C1CCCCC1 (centres unmarked) [Oxybutynin, oxybutynin, reference compound] | 1.1 ± 0.2 cycles of contraction per minute | 1.0 ± 0.2 cycles of contraction per minute | 1.2 ± 0.1 cycles of contraction per minute | 1.2 ± 0.2 cycles of contraction per minute | 1.0 ± 0.1 cycles of contraction per minute | no such action was observed | 16.8 | 5.80 | 2.75 | exhibits side effects such as thirst | – | – | – | –
2 | CCN(CC)CC#CC(C)(C)OC(=O)C(O)(c1ccccc1)C1CCCCC1 (stereo not drawn) [Example 4, 4-diethylamino-1.1-dimethyl-2-butynyl α-cyclohexylα-phenylglycolate hydrochloride] | 1.1 ± 0.3 cycles of contraction per minute | 0.8 ± 0.2 cycles of contraction per minute | 0.3 ± 0.1 cycles of contraction per minute | 0.0 ± 0.0 cycles of contraction per minute | 1.3 ± 0.3 cycles of contraction per minute | dose-dependent action to suppress the frequency of contraction | 51 | 6.72 | 46.8 | – | ≥ 0.1 | 8.3 | 1/17 | 841
